# In patent US7632918B2, “Semi-synthetic glycopeptides with antibiotic activity” (Novartis Vaccines and Diagnostics, Inc., priority 2005, dated 2009):
# Columns and labels:
# Assay in all cases: MIC, broth microdilution in Meuller-Hinton broth (NCCLS)
# 568 E. faecium (GSE) = assay type: cell-based; conditions: glycopeptide-sensitive clinical isolate
# Description: (§1) Antibacterial activity in vitro was investigated by broth microdilution method in Meuller-Hinton broth as recommended by NCCLS. All strains tested were clinical isolates either sensitive or resistant to natural glycopeptides. Results are reported in the tables as MIC (minimal inhibitory concentration) in μg/ml.
# (§2) The glycopeptides were tested against a variety of strains, indicated below, including Staphylococus epidermidis, Staphylococus haemolyticus, glycopeptides-intermediate Staphylococus aureus (GISA), glocopeptide-sensitive Enterococcus faecalis (GSE), and glocopeptide-resistant Enterococcus faecalis (GRE). Results are shown in the table as minimum inhibitory concentration (MIC) in units of μg/ml: […]
# 569 E. faecium (GRE) = assay type: cell-based; conditions: glycopeptide-resistant clinical isolate
# Description: as §1, §2
# 559 E. faecalis (GSE) = assay type: cell-based, Enterococcus faecalis; conditions: glycopeptide-sensitive clinical isolate
# Description: as §1, §2
# 560 E. faecalis (GRE) = assay type: cell-based, Enterococcus faecalis; conditions: glycopeptide-resistant clinical isolate
# Description: as §1, §2
# 533 S. epidermidis = assay type: cell-based, Staphylococus epidermidis; conditions: clinical isolate
# Description: as §1, §2
# 602 S. haemolyticus = assay type: cell-based, Staphylococus haemolyticus; conditions: clinical isolate
# Description: as §1, §2
# 3797 S. aureus (GISA) = assay type: cell-based, Staphylococus aureus; conditions: glycopeptides-intermediate clinical isolate
# Description: as §1, §2
# 3798 S. aureus (GISA) = assay type: cell-based, Staphylococus aureus; conditions: glycopeptides-intermediate clinical isolate
# Description: as §1, §2
Compound,MIC 568 E. faecium (GSE) (568 E. faecium (GSE)) [µg/mL],MIC 569 E. faecium (GRE) (569 E. faecium (GRE)) [µg/mL],MIC 559 E. faecalis (GSE) (559 E. faecalis (GSE)) [µg/mL],MIC 560 E. faecalis (GRE) (560 E. faecalis (GRE)) [µg/mL],MIC 533 S. epidermidis (533 S. epidermidis) [µg/mL],MIC 602 S. haemolyticus (602 S. haemolyticus) [µg/mL],MIC 3797 S. aureus (GISA) (3797 S. aureus (GISA)) [µg/mL],MIC 3798 S. aureus (GISA) (3798 S. aureus (GISA)) [µg/mL]
CNC(CC(C)C)C(=O)NC1C(=O)NC(CC(N)=O)C(=O)NC2C(=O)NC3C(=O)NC(C(=O)NC(C(=O)O)c4cc(O)cc(O)c4-c4cc3ccc4O)C(OC3CC(C)(N)C(O)C(C)O3)c3ccc(cc3)Oc3cc2cc(c3OC2OC(CO)C(O)C(O)C2OC2CC(C)(NC(=O)CNC(=O)OCC3c4ccccc4-c4ccccc43)C(O)C(C)O2)Oc2ccc(cc2Cl)C1O (stereo not drawn) [Compound 221],0.5,64,0.5,>64,–,–,–,–
"CNC(CC(C)C)C(=O)NC1C(=O)NC(CC(N)=O)C(=O)NC2C(=O)NC3C(=O)NC(C(=O)NC(C(=O)NC4C5CC6CC(C5)CC4C6)c4cc(O)cc(O)c4-c4cc3ccc4O)C(OC3CC(C)(N)C(O)C(C)O3)c3ccc(cc3)Oc3cc2cc(c3OC2OC(CO)C(O)C(O)C2OC2CC(C)(N)C(O)C(C)O2)Oc2ccc(cc2Cl)C1O (stereo not drawn) [Compound 213, 2-adamantanamino eremomycin]",0.5,4,0.5,8,0.25,0.25,1,2
CCCCc1ccc(CNCC(=O)NC2(C)CC(OC3C(Oc4c5cc6cc4Oc4ccc(cc4Cl)C(O)C4NC(=O)C(NC(=O)C6NC(=O)C(CC(N)=O)NC(=O)C(NC(=O)C(CC(C)C)NC)C(O)c6ccc(c(Cl)c6)O5)c5ccc(O)c(c5)-c5c(O)cc(O)cc5C(C(=O)NCc5ccc(F)cc5)NC4=O)OC(CO)C(O)C3O)OC(C)C2O)cc1 (stereo not drawn) [Compound 276],2,16,4,16,0.5,2,2,2
CCCCN(CCCC)c1ccc(CNCC(=O)NC2(C)CC(OC3C(Oc4c5cc6cc4Oc4ccc(cc4Cl)C(O)C(NC(=O)C(CC(C)C)NC)C(=O)NC(CC(N)=O)C(=O)NC6C(=O)NC4C(=O)NC(C(=O)NC(C(=O)O)c6cc(O)cc(O)c6-c6cc4ccc6O)C(OC4CC(C)(N)C(O)C(C)O4)c4ccc(cc4)O5)OC(CO)C(O)C3O)OC(C)C2O)cc1 (stereo not drawn) [Compound 187],1,32,2,32,1,1,8,8
CCCCc1ccc(CNCC(=O)NC2(C)CC(OC3C(Oc4c5cc6cc4Oc4ccc(cc4Cl)C(O)C4NC(=O)C(NC(=O)C6NC(=O)C(CC(N)=O)NC(=O)C(NC(=O)C(CC(C)C)NC)C(O)c6ccc(c(Cl)c6)O5)c5ccc(O)c(c5)-c5c(O)cc(O)cc5C(C(=O)O)NC4=O)OC(CO)C(O)C3O)OC(C)C2O)cc1 (stereo not drawn) [Compound 182],0.5,32,1,32,0.25,0.5,2,2
CNC(CC(C)C)C(=O)NC1C(=O)NC(CC(N)=O)C(=O)NC2C(=O)NC3C(=O)NC(C(=O)NC(C(=O)O)c4cc(O)cc(O)c4-c4cc3ccc4O)C(OC3CC(C)(N)C(O)C(C)O3)c3ccc(cc3)Oc3cc2cc(c3OC2OC(CO)C(O)C(O)C2OC2CC(C)(NC(=O)CNCc3ccc(C(F)(F)F)cc3)C(O)C(C)O2)Oc2ccc(cc2Cl)C1O (stereo not drawn) [Compound 294],0.5,>64,0.5,>64,1,1,4,4
CNC(CC(C)C)C(=O)NC1C(=O)NC(CC(N)=O)C(=O)NC2C(=O)NC3C(=O)NC(C(=O)NC(C(=O)O)c4cc(O)cc(O)c4-c4cc3ccc4O)C(OC3CC(C)(N)C(O)C(C)O3)c3ccc(cc3)Oc3cc2cc(c3OC2OC(CO)C(O)C(O)C2OC2CC(C)(NC(=O)CNCc3ccc4c(c3)Cc3ccccc3-4)C(O)C(C)O2)Oc2ccc(cc2Cl)C1O (stereo not drawn) [Compound 292],2,32,2,32,4,4,8,8
CCCCCCCCOc1ccc(CNCC(=O)NC2(C)CC(OC3C(Oc4c5cc6cc4Oc4ccc(cc4Cl)C(O)C(NC(=O)C(CC(C)C)NC)C(=O)NC(CC(N)=O)C(=O)NC6C(=O)NC4C(=O)NC(C(=O)NC(C(=O)NC6C7CC8CC(C7)CC6C8)c6cc(O)cc(O)c6-c6cc4ccc6O)C(OC4CC(C)(N)C(O)C(C)O4)c4ccc(cc4)O5)OC(CO)C(O)C3O)OC(C)C2O)cc1 (stereo not drawn) [Compound 265],–,–,–,–,32,32,>32,>32
CNC(CC(C)C)C(=O)NC1C(=O)NC(CC(N)=O)C(=O)NC2C(=O)NC3C(=O)NC(C(=O)NC(C(=O)O)c4cc(O)cc(O)c4-c4cc3ccc4O)C(O)c3ccc(c(Cl)c3)Oc3cc2cc(c3OC2OC(CO)C(O)C(O)C2OC2CC(C)(NC(=O)CNCc3ccc(-c4ccc(Cl)cc4)cc3)C(O)C(C)O2)Oc2ccc(cc2Cl)C1O (stereo not drawn) [Compound 210],0.25,16,0.5,16,0.13,0.25,1,1
CCCCc1ccc(CNCC(=O)NC2(C)CC(OC3C(Oc4c5cc6cc4Oc4ccc(cc4Cl)C(O)C(NC(=O)C(CC(C)C)NC)C(=O)NC(CC(N)=O)C(=O)NC6C(=O)NC4C(=O)NC(C(=O)NC(C(=O)NC(C)C67CC8CC(CC(C8)C6)C7)c6cc(O)cc(O)c6-c6cc4ccc6O)C(OC4CC(C)(N)C(O)C(C)O4)c4ccc(cc4)O5)OC(CO)C(O)C3O)OC(C)C2O)cc1 (stereo not drawn) [Compound 264],4,8,4,8,4,8,8,16
CNC(CC(C)C)C(=O)NC1C(=O)NC(CC(N)=O)C(=O)NC2C(=O)NC3C(=O)NC(C(=O)NC(C(=O)O)c4cc(O)cc(O)c4-c4cc3ccc4O)C(OC3CC(C)(N)C(O)C(C)O3)c3ccc(cc3)Oc3cc2cc(c3OC2OC(CO)C(O)C(O)C2OC2CC(C)(NC(=O)[C@H](N)Cc3ccccc3)C(O)C(C)O2)Oc2ccc(cc2Cl)C1O (stereo partly drawn) [Compound 229],0.25,>64,0.5,>64,1,1,>32,>32
CCCCOc1ccc(CNCC(=O)NC2(C)CC(OC3C(Oc4c5cc6cc4Oc4ccc(cc4Cl)C(O)C(NC(=O)C(CC(C)C)NC)C(=O)NC(CC(N)=O)C(=O)NC6C(=O)NC4C(=O)NC(C(=O)NC(C(=O)O)c6cc(O)cc(O)c6-c6cc4ccc6O)C(OC4CC(C)(N)C(O)C(C)O4)c4ccc(cc4)O5)OC(CO)C(O)C3O)OC(C)C2O)cc1 (stereo not drawn) [Compound 193],1,64,2,64,0.5,1,4,4
CNC(CC(C)C)C(=O)NC1C(=O)NC(CC(N)=O)C(=O)NC2C(=O)NC3C(=O)NC(C(=O)NC(C(=O)O)c4cc(O)cc(O)c4-c4cc3ccc4O)C(OC3CC(C)(N)C(O)C(C)O3)c3ccc(cc3)Oc3cc2cc(c3OC2OC(CO)C(O)C(O)C2OC2CC(C)(NC(=O)CNC(=O)OC34CC5CC(CC(C5)C3)C4)C(O)C(C)O2)Oc2ccc(cc2Cl)C1O (stereo not drawn) [Compound 222],1,>64,2,>64,–,–,–,–
CCCCCCCCOc1ccc(CNCC(=O)NC2(C)CC(OC3C(Oc4c5cc6cc4Oc4ccc(cc4Cl)C(O)C(NC(=O)C(CC(C)C)NC)C(=O)NC(CC(N)=O)C(=O)NC6C(=O)NC4C(=O)NC(C(=O)NC(C(=O)NC(C)C67CC8CC(CC(C8)C6)C7)c6cc(O)cc(O)c6-c6cc4ccc6O)C(OC4CC(C)(N)C(O)C(C)O4)c4ccc(cc4)O5)OC(CO)C(O)C3O)OC(C)C2O)cc1 (stereo not drawn) [Compound 266],–,–,–,–,16,32,>32,>32
